Measurements from paper PMC11874377, “Fungal-derived methyldeoxaphomins target Plasmodium falciparum segregation through the inhibition of PfActin1” (Proceedings of the National Academy of Sciences of the …, 2025).
Read-outs that look alike come from different tables or passages of the source.

Legend:
[1] = system: P. falciparum multidrug resistant line Dd2; assay: SYBR Green I-based antiplasmodial assay, asexual blood stage, Dd2; assay type: cell-based, Plasmodium falciparum
Procedure: The antiplasmodial activity of these analogs was assessed in P. falciparum asexual blood stage using a SYBR Green I-based assay. Compounds were tested in both the multidrug resistant line Dd2, and the chloroquine-sensitive line 3D7, to probe any potential for preexisting resistance. […] These methyldeoxaphomin analogs were also cross-screened for cytotoxicity in the human cell line HepG2 to determine their selectivity for the Plasmodium parasite. […] This effect was maintained with analog NPDG-F where both R1 and R2 were substituted with OH groups. […] In addition, the hydroxyl group at carbon 7 seems to be critical for function as a drastic loss of potency was found in NPDG-D as compared to B and C. […]
Plasmodium blood stage culture
Parasite culture in the Chakrabarti lab was maintained following a modified Trager and Jensen protocol (Trager & Jensen, 1976) as previously described (Lee et al., 2021) with RPMI 1640 with 25 mM HEPES pH 7.4, 26 mM NaHCO3, 15 mg/L hypoxanthine, 0.5% Albumax II, 25 mg/L gentamycin, and 2% dextrose. Parasites were grown with human A+ erythrocytes obtained from Florida OneBlood. Cultures were kept in an incubator with 5% […]
Antiplasmodial activity screening
SYBR Green I-based fluorescence assay was performed as previously described (Lee et al., 2021) following protocols by Smilkstein et. al. (Smilkstein et al., 2004). Asynchronous Dd2 parasites were added to serially diluted compounds and incubated for 72 h at 5% CO2, 95% air at 37°C. Plates were then frozen at -80°C, thawed, and incubated for one hour with 1x SYBR Green I in a lysis buffer (20 mM Tris-HCL, 0.08% saponin, 5 mM EDTA, and 0.8% Triton X-100). Fluorescence was then read on a Synergy Neo2 multimode reader (BioTek Winsooki, VT). […]

[2] = system: Plasmodium falciparum Dd2-Pol δ; assay: In vitro evolution of resistance, bulk culture populations; assay type: cell-based; conditions: after selection from 90 nM to 17 μM over 6.3 mo
Procedure: We next sought to identify the molecular target of NPDG-F using in vitro evolution in a hypermutator line Dd2-Pol δ. This line was created to facilitate faster resistance development through the modification of the catalytic residues in DNA polymerase δ via CRISPR-Cas9 ([13]). Three populations of parasites grown in parallel were exposed to increasing concentrations of NPDG-F from the initial 90 nM to a final concentration of 17 μM over 6.3 mo. Once resistance (~4.2-fold) was identified in the 3 bulk culture populations, parasite DNA was extracted, followed by library preparation and whole-genome sequencing. […]
The in vitro evolution was conducted using Plasmodium falciparum Dd2-Pol δ. […] Every 2 or 3 days, parasitemia was determined via Giemsa smear and reset to 2% (for a 3-day split, 1.6 X108 parasites) or 3% (for a 2-day split, 2.4 X108). […] Resistance development was monitored every 3 months through SYBR green I- based EC50 dose response assay as described above. […]
Parasite genomic DNA was extracted from the parent and the resistant lines using DNeasy Blood & Tissue Kit (Qiagen). […] The pooled libraries were sequenced on Illumina NovaSeq 6000 with S4 200 chemistry to generate paired end reads with 100bp in length.
Reads were aligned to Plasmodium falciparum reference genome 3D7 (PlasmoDB v13.0) using an in-house pipeline (Cowell & Winzeler, 2019). […]

**Q.** Which results are given for `C=C1C(C)C2C(Cc3ccccc3)NC(=O)C23C(=O)C=CC(O)C(O)C(C)CC(C)CC=CC3C1O` (stereo not drawn) [Methyldeoxaphomin NPDG-F]?
**A.** EC50 ([1]; Plasmodium falciparum, DD2, 72 h, read-out: Dd2 EC50, means from triplicate experiments ± SEM, 72 h): 550 nM; EC50 ([1]; Plasmodium falciparum, DD2, read-out: Dd2: Average EC50, average ± SEM of three replicates): 550 ± 40 nM; EC50 ([1]; Plasmodium falciparum, DD2, read-out: Dd2: EC50, individual replicates): 500 nM; EC50 ([1]; Plasmodium falciparum, DD2, read-out: EC50 in Dd2, abstract): 550 nM; EC50 ([1]; read-out: Dd2: EC50, individual replicates): 580 nM; resistance in the 3 bulk culture populations [2]: ~ 4.2 fold
